The molecules below were run on LNCaP-hr cells (assay: Antitumor test using nude mice transplanted with LNCaP-hr cells). Conditions: castrated nude mice, LNCaP-hr subcutaneous, 15 mg/kg orally twice daily for three weeks.
Assay type: in vivo
Procedure: LNCaP-hr cells were suspended in Matrigel, and 5×10^6 cells were transplanted subcutaneously into the flank of castrated nude mice. When tumor volume reached approximately 100 mm^3, the animals were grouped based on the tumor volume, and administered orally with 15 mg/kg body weight of the compound twice daily for three weeks. The tumor volume was calculated based on the assumption that the volume of the control group was 100% and the volume of the treated group at the start of the administration was 0% (T/C %).
`Cc1cc(-c2ccc(C#N)cc2)c(C)n1Cc1cn[nH]c1C(C)(C)O` [Compound 9] was tested, and the Antitumor activity was “antitumor activity was observed”.
For `Cc1cc(-c2ccc(C#N)cc2)c(C#N)n1Cc1cc(C(F)(F)F)n[nH]1` [Compound 8], the Antitumor activity was “antitumor activity was observed”.
In the case of `Cc1cc(-c2ccc(C#N)cc2)c(C)n1Cc1cc(C(F)(F)F)n[nH]1` [Compound 6], the Antitumor activity is reported as “antitumor activity was observed”.

Same assay, conditions: castrated nude mice, LNCaP-hr subcutaneous, 15 mg/kg orally twice daily for three weeks; control 100%, start of administration 0%
For `Cc1cc(-c2ccc(C#N)cc2)c(C)n1Cc1cn[nH]c1C(C)(C)O` [Compound 9], the “T/C (tumor volume)” value was “T/C = 24%”.
For `Cc1cc(-c2ccc(C#N)cc2)c(C#N)n1Cc1cc(C(F)(F)F)n[nH]1` [Compound 8], the “T/C (tumor volume)” value was “T/C = −5%”.
`Cc1cc(-c2ccc(C#N)cc2)c(C)n1Cc1cc(C(F)(F)F)n[nH]1` [Compound 6] was tested, and the “T/C (tumor volume)” value was “T/C = −3%”.

These molecules were tested on androgen receptors (assay: Reporter assay using LNCaP-hr cells (6k-PSA promoter, firefly luciferase)). Conditions: LNCaP-hr cells with PSA promoter-luciferase, 24 hours after addition.
Assay type: cell-based, human
Procedure: As a negative control compound, conventional AR antagonist, bicalutamide was used. 6k-PSA promoter and firefly luciferase gene were used as a PSA promoter and a reporter gene, respectively.
LNCaP-hr cells transfected with a reporter gene linked to a PSA promoter were plated on 96-well plates at a density of 50,000 cells/100 μL/well, to which the test compounds were added after the cells were cultured for 8 hours. The reporter activity was determined 24 hours after the addition of the test compounds. The suppressing activity of the test compounds on the reporter gene was calculated based on the assumption that the reporter activity in the cells without the addition of the test compounds (control group) was 100% and the reporter activity of the non-treated LNCaP-hr cells without introduction of the reporter gene was 0%.
With `Cc1cc(-c2ccc(C#N)cc2)c(C)n1Cc1cn[nH]c1C(C)(C)O` [Compound 9] the “Suppressing activity on the reporter gene” value (“Suppressing activity” for short) was “Concentration-dependent suppressing activity on the reporter gene was observed”.
For `Cc1cc(-c2ccc(C#N)cc2)c(C#N)n1Cc1cc(C(F)(F)F)n[nH]1` [Compound 8], the “Suppressing activity” value was “Concentration-dependent suppressing activity on the reporter gene was observed”.
In the case of `Cc1cc(-c2ccc(C#N)cc2)c(C)n1Cc1cc(C(F)(F)F)n[nH]1` [Compound 6], the “Suppressing activity” value is reported as “Concentration-dependent suppressing activity on the reporter gene was observed”.

— patent US20100119452A1, “SCREENING METHOD” (Takeda Pharmaceutical Company Limited, priority 2007, published 2010)
